Legend:
Histamine H1 receptor = Histamine H1 receptor (Rattus norvegicus, UniProt P31390)
[1] = molecular target: T1, Alpha-2C adrenergic receptor (Rattus norvegicus, UniProt P22086)
T1 sequence (P22086 whole entry): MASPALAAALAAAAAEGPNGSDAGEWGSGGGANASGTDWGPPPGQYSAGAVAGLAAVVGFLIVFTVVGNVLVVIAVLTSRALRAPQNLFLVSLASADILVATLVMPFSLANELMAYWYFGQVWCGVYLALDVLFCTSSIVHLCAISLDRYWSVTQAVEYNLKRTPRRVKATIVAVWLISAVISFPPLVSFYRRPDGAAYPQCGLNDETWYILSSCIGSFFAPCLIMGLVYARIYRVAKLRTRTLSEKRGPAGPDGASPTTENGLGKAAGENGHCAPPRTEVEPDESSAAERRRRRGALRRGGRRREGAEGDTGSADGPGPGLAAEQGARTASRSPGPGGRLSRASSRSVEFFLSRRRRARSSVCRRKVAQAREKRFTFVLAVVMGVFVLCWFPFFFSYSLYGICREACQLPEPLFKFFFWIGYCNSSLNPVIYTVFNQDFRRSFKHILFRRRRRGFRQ

[2] = molecular target: T2, Muscarinic acetylcholine receptor M2 (Rattus norvegicus, UniProt P10980)
T2 sequence (P10980 whole entry): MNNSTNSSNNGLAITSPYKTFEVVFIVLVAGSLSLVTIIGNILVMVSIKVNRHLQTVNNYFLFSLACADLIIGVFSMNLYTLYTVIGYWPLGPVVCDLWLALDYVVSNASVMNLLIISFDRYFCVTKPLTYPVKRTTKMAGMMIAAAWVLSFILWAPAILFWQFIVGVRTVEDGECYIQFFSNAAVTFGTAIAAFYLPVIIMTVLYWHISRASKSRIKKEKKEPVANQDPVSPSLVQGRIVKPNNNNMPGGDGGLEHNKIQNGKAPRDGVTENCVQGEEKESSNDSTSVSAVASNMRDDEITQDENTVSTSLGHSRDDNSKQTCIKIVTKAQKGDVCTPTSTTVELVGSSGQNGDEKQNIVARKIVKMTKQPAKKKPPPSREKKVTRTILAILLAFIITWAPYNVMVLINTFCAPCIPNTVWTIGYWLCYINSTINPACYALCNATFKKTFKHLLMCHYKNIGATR

Sequence of Histamine H1 receptor (P31390 whole entry): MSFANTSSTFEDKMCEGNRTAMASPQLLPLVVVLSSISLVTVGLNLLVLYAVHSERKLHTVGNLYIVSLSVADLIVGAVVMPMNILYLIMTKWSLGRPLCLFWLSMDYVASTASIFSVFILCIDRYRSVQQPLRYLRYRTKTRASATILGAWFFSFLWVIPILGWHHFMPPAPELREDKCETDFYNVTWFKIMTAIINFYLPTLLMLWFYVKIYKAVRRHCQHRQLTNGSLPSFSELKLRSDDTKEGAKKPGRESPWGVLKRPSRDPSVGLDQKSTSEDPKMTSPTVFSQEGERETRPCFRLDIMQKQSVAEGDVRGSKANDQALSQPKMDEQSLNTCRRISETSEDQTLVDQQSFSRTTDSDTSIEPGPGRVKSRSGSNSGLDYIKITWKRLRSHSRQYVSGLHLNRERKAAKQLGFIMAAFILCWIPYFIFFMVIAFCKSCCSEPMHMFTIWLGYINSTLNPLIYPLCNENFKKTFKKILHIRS

CN(C)CCCN1c2ccccc2CCc2ccccc21 gave a Ki (Histamine H1 receptor) of 0.031 µM, a Ki [1] of 4.6 µM and a Ki [2] of 0.32 µM.
In the case of CN1Cc2c(N)cccc2[C@H](c2ccccc2)C1 [(+/-)-2-Methyl-4-phenyl-1,2,3,4-tetrahydro-isoquinolin-8-ylamine], the Ki (Histamine H1 receptor) is reported as > 10 µM and the Ki [1] is reported as 6.1 µM.
CN(C)C[C@@H]1C2CCC(CC2)[C@@H]1c1ccc(Cl)c(Cl)c1 [CAS_62373-97-1] was tested, and the Ki (Histamine H1 receptor) was 2 µM and the Ki [1] was > 10 µM.
In the case of CNCCCN1c2ccccc2CCc2ccccc21 [Desmethylimipramine], the Ki [1] is reported as 9.2 µM and the Ki [2] is reported as 0.6 µM.
CNCCC(Oc1ccccc1C)c1ccccc1 (configuration not stated) [Methyl-(3-phenyl-3-o-tolyloxy-propyl)-amine(tomoxetine)] was tested, and the Ki (Histamine H1 receptor) was 6.4 µM, the Ki [1] was > 10 µM and the Ki [2] was > 10 µM.
